Laboratory results taken from patent US12358901B2, “KV3 modulators” (priority 2018, dated 2025).
“And” between values parts separate entries of the source, which are not always exact repeats. Identical values can stand only once.

Experiments:
[1] = target: human Kv3.1 channels (hKv3.1) (Homo sapiens, UniProt P48547); assay: cell-based; assay type: cell-based; settings: for Kv3.1 pEC50: HEK-hKv3.1 cells, -15 mV voltage step, normalised to 50 microM reference compound; for Kv3.1 max R %: maximum response relative to reference compound (50 microM)
From the text: The ability of the compounds of the invention to modulate the voltage-gated potassium channel subtypes Kv3.3/Kv3.2/Kv3.1 may be determined using the following assay. Analogous methods may be used to investigate the ability of the compounds of the invention to modulate other channel subtypes.
To assess compound effects on human Kv3.1 channels (hKv3.1):
Human embryonic kidney (HEK)-hKv3.1 cell line is generated by transfecting HEK-293 cells with an expression vector with human Kv3.1 (NM_004976.4). Cells are cultured with MEM supplemented with 10% Heat-Inactivated FBS, 2 mM L-glutamine, 1% Penicillin-Streptomycin, and 0.6 mg/ml of Geneticin (G418). HEK-hKv3.1b cells were amplified in T175 cm2 flask at 37° C. with 5% CO2, using MEM amplification medium, containing the G418 selection antibiotic (0.6 mg/ml). Cells were detached every 3-4 days, using DPBS to wash twice the flask, then TrypLE to dislodge the cells, and re-plated at a density of 2-4×10^6 cells/flask.
The day of the experiment, cells are removed from the incubator and the culture medium removed. Cells are washed with 5 ml of Dulbecco's PBS (DPBS) calcium and magnesium free and detached by the addition of 3 ml Versene (Invitrogen, Italy) followed by a brief incubation at 37° C. for 5 minutes. The flask is tapped to dislodge cells and 10 ml of DPBS containing calcium and magnesium is added to prepare a cell suspension. The cell suspension is then placed into a 15 ml centrifuge tube and centrifuged for 2 min at 1200 rpm. After centrifugation, the supernatant is removed and the cell pellet re-suspended in 4 ml of DPBS containing calcium and magnesium using a 5 ml pipette to break up the pellet. Cell suspension volume is then corrected to give a cell concentration for the assay of approximately 3 million cells per ml.
Experiments are conducted at r.t. using IonWorks Quattro™ planar array electrophysiology technology (Molecular Devices Corp.) with PatchPlate™ PPC. Stimulation protocols and data acquisition are carried out using a microcomputer (Dell Pentium 4). Planar electrode hole resistances (Rp) are determined by applying a 10 mV voltage step across each well. These measurements are performed before cell addition. After cell addition and seal formation, a seal test is performed by applying a voltage step from −80 mV to −70 mV for 160 ms. Following this, amphotericin-B solution is added to the intracellular face of the electrode to achieve intracellular access. Cells are held at −70 mV. Leak subtraction is conducted in all experiments by applying 50 ms hyperpolarizing (10 mV) prepulses to evoke leak currents followed by a 20 ms period at the holding potential before test pulses.
For hKv3.2 and hKv3.1, assays from the holding potential of −70 mV, a first test pulse at −15 mV was applied for 100 ms and after 100 ms at −70 mV a second pulse at +40 mV was applied for 50 ms. Cells were then maintained for 100 ms at −100 mV and another pulse from −70 mV to +40 mV (duration 50 ms) was applied to clamp later the voltage at −40 mV during 200 ms
The intracellular solution contains the following (in mM): K-gluconate 100, KCl 54, MgCl2 3.2, HEPES 5, adjusted to pH 7.3 with KOH. Amphotericin-B solution is prepared as 50 mg/ml stock solution in DMSO and diluted to a final working concentration of 0.1 mg/ml in intracellular solution. The external solution is Dulbecco's Phosphate Buffered Saline (DPBS) and contained the following (in mM): CaCl2 0.90, KCl 2.67, KH2PO4 1.47, MgCl·6H2O 0.493, NaCl 136.9, Na3PO4 8.06, with a pH of 7.4.
Compounds of use in the invention (or reference compounds such as N-cyclohexyl-N-[(7,8-dimethyl-2-oxo-1,2-dihydro-3-quinolinyl)methyl]-N-phenylurea) are dissolved in dimethylsulfoxide (DMSO) at a stock concentration of 10 mM. These solutions are further diluted with DMSO using a Biomek FX (Beckman Coulter) in a 384 compound plate. Each dilution (1 μL) is transferred to another compound plate and external solution containing 0.05% pluronic acid (66 μL) is added. […]

[2] = Determination of brain tissue binding (equilibrium dialysis); assay type: in vitro ADME; settings: Sprague Dawley, rat whole brain homogenate, 5 h at 37° C.
Protocol: Sprague Dawley rat whole blood, collected on the week of the experiment using K3-EDTA as an anti-coagulant, is diluted with isotonic phosphate buffer 1:1 (v/v). Sprague Dawley rat whole brain, stored frozen at −20° C., is thawed and homogenised in artificial cerebrospinal fluid (CSF) 1:2 (w/v).
An appropriate amount of test compound is dissolved in DMSO to give a 10 millimolar solution. Further dilutions, to obtain a 166.7 micromolar working solution are then prepared using 50% acetonitrile in MilliQ water. This working solution is used to spike the blood to obtain a final concentration of 0.5 micromolar in whole blood. Similarly, the working solution is used to spike brain samples to obtain a final concentration of 5 micromolar in whole brain. From these spiked blood and brain preparations, control samples (n=3), are immediately extracted and used to calculate the initial recovery of the test items.
150 microL of compound-free buffer (isotonic phosphate buffer for blood or artificial CSF buffer for brain) is dispensed in one half-well and 150 microL of spiked matrix (blood or brain) is loaded in the other half-well, with the two halves separated by a semi-permeable membrane. After an equilibration period of 5 h at 37° C., 50 microL of dialysed matrix (blood or brain) is added to 50 microL of corresponding compound-free buffer, and vice-versa for buffer, such that the volume of buffer to matrix (blood or brain) remains the same. Samples are then extracted by protein precipitation with 300 microL of acetonitrile containing rolipram (control for positive ionization mode) or diclofenac (control for negative ionization mode) as internal standards and centrifuged for 10 min at 3000 rpm. Supernatants are collected (100 microL), diluted with 27% AcN in MilliQ water (200 microL) and then injected into an HPLC-MS/MS or UPLC-MS/MS system to determine the concentration of test compound present.
Blood and brain tissue binding are then determined using the following formulas: Afu=Buffer/Blood or Afu=CSF/Brain
Where Afu=apparent fraction unbound; Buffer=analyte/internal standard ratio determined in the buffer compartment; Blood=analyte/internal standard ratio determined in the blood compartment; Brain=analyte/internal standard ratio determined in the brain compartment.
[formula] where: fucr=Fraction unbound corrected; D=matrix dilution factor (D=2 for blood and D=3 for brain).
Then: % Binding=(1−fucr)×100 % Unbound=100−% Bound Brain/Blood Partition Ratio (Kbb) Determination

[3] = system: Salmonella typhimurium (TA1535, TA1537, TA98 and TA100) and Escherichia coli WP2 uvrA (pKM101); assay: Ames testing (bacterial mutagenicity, with and without S9-mix); settings: 5 to 5000 ug/plate, absence and presence of S9-mix

Compound | Kv3.1 pEC50 [1] | Kv3.1 max R % [1] | fraction unbound at 5 h, 5 micromolar [2] | Ames Result (compound) [3]
CC[C@H]1NC(=O)N(c2cnc(Oc3ccc(C)c4c3C3(CC3)CO4)cn2)C1=O [Example 9, (5R)-5-ethyl-3-[5-(7-methylspiro[2H-benzofuran-3,1′-cyclopropane]-4-yl)oxypyrazin-2-yl]imidazolidine-2,4-dione] | 5.88 and 5.90 | 172% and 146% | 0.03 | Non- mutagenic
CC[C@H]1NC(=O)N(c2cnc(Oc3cccc4c3C3(CC3)CO4)cn2)C1=O [Example 10, (5R)-5-ethyl-3-(5-spiro[2H-benzofuran-3,1′-cyclopropane]-4-yloxypyrazin-2-yl)imidazolidine-2,4-dione] | 5.45 and 5.63 | 153% and 147% | 0.087 | Non- mutagenic
Cc1ccc(Oc2ncc(N3C(=O)NC(C)(C)C3=O)cn2)c2c1OCC21CC1 [RE5, reference compound] | 5.14 | 158% | 0.051 | Non- mutagenic
CC[C@H]1NC(=O)N(c2ccc(Oc3ccc(C)c4c3C3(CC3)CO4)nc2)C1=O [RE11, reference compound] | 6.1 | 152% | 0.021 | Non- mutagenic
CC[C@H]1NC(=O)N(c2ccc(Oc3cccc4c3C3(CC3)CO4)nc2)C1=O [RE13, (5R)-5-ethyl-3-(6-spiro[2H-benzofuran-3,1′-cyclopropane]-4-yloxy-3-pyridyl)imidazolidine-2,4-dione, reference compound] | 6.1 | 149% | 0.062 | –
